Laboratory results published in patent US20260035355A1, “COMPOUND, PHARMACEUTICAL COMPOSITION COMPRISING SAME, AND USE THEREOF” (SHENZHEN ZHONGGE BIOLOGICAL TECHNOLOGY CO., LTD., priority 2022, published 2026).
pEC50: −log10 of the molar value.

Target: T1, eIF2B (Homo sapiens, UniProt P49770+Q9UI10)
T1 construct: endogenous in cells; host or cells: HEK293T/17-ATF4 uORF-Luc-Puro monoclonal cells
Assay: ATF4-Luc assay (ATF4 luciferase reporter, thapsigargin-induced stress)
Type: cell-based
Conditions: HEK293T/17-ATF4 uORF-Luc-Puro monoclonal cells, 50 nM thapsigargin, incubated for 6 hours
Source text: The ATF4 luciferase reporter plasmid consists of two parts, i.e., the 5′ untranslated region sequence of the ATF4 gene and the luciferase coding sequence. Specifically, the ATF4 5′ untranslated region sequence (NCBI database number BC022088.2) containing two upstream open reading frames (uORFs), and the firefly luciferase encoding gene were cloned into the pLVX-Puro vector (YouBio, VT1465). The packaging plasmids of lentivirus were psPAX2 (YouBio, VT1444) and pMD2.G (YouBio, VT1443). 650,000 HEK293T cells were seeded per well of a 6-well plate and cultured overnight in a 5% CO2 incubator. The cells were transfected with the packaged lentivirus for 48 hours and then centrifuged, and the supernatant was discarded. The medium was replaced and changed to the DMEM complete medium containing 0.8 μg/ml puromycin, and the cells were resuspended and then cultured. After one week of cell screening with puromycin, the surviving cells were HEK293T-ATF4 uORF-Luc-Puro polyclonal cells. 200 polyclonal cells were taken and subjected to limiting gradient dilution by using a 96-well plate, so as to obtain monoclonal cells.
The specific method for screening the monoclonal cells involves: placing the 200 polyclonal cells in well A1 of the 96-well plate; step one: performing gradient dilution from columns A1 to H1 at a ratio of 1:2; step two: performing gradient dilution from rows A to H, with each row from wells 1 to 12 at a ratio of 1:2; marking the wells with a theoretical cell number less than 0.5 and observing one by one under a microscope; marking the wells with only one cell; and culturing the cells for two weeks to obtain the monoclonal cells.
By using this cell line and the cold fluorescence readings, the translational regulation of ATF4 can be detected, and the activity of eIF2B activated by the compounds can be tested.
The specific experimental process is as follows: 6000 HEK293T/17-ATF4 uORF-Luc-Puro monoclonal cells were plated in a 384-well plate and allowed to adhere overnight. The test compounds were dissolved in DMSO and diluted to 10 different concentrations, which were respectively added together with 50 nM thapsigargin to the cell culture medium and incubated for 6 hours, wherein the thapsigargin was used to cause cellular stress and upregulate the protein translation of ATF4. Six hours after the addition, the cells were lysed using the One-Glo Luciferase Assay Kit (Promega #E6120), and then the cold fluorescence values were read using the LUM program of the EnVision 2104 plate reader.
EC50 was calculated based on the fluorescence values at 9 concentrations (0.1 nM, 0.3 nM, 1.0 nM, 3.0 nM, 10.0 nM, 30.0 nM, 100.0 nM, 300.0 nM and 1000.0 nM) of each compound and recorded in Table 1.
The ATF4 reporter expression was calculated as follows:
ATF4 reporter expression=(ave_sample-ave_vc)/(ave_pc-ave_vc)
where ave_vc represents the average signal value of negative controls, ave_pc represents the average signal value of positive controls, and ave_sample represents the average signal value of samples.
The dose-response curves were fitted, and the EC50 values were calculated.
The nonlinear regression log(inhibitor) vs. response—variable slope (four parameters) method of GraphPad 9 software was used to fit the corresponding relationship between the ATF4 reporter expression and the compound concentration.
The X-axis represents the log value of the compound concentration; and the Y-axis represents the ATF4 reporter expression.

T1 sequence (P49770 whole entry): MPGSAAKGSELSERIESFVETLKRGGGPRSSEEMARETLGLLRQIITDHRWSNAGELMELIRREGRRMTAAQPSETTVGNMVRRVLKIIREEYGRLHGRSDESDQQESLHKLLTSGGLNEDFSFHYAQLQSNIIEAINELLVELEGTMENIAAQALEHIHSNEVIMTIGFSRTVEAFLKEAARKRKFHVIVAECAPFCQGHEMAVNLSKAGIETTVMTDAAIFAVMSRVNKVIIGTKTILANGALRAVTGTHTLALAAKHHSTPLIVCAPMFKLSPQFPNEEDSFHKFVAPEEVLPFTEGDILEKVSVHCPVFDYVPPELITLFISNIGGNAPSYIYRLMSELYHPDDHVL
T1 sequence (Q9UI10 whole entry): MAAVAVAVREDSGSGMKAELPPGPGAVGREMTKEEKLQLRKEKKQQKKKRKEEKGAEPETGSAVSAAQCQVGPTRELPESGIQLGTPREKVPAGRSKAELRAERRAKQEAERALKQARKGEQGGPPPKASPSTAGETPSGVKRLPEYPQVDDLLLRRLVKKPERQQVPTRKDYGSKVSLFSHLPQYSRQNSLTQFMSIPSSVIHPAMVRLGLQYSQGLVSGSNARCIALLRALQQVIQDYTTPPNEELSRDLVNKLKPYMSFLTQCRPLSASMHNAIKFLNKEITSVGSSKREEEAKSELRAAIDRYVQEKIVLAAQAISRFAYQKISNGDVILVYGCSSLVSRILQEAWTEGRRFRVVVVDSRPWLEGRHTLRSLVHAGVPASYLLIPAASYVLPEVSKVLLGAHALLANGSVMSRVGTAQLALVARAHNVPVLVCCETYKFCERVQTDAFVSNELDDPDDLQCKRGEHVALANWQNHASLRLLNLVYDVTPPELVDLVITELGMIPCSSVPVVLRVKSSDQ
T1 sequence (Q14232 whole entry partner): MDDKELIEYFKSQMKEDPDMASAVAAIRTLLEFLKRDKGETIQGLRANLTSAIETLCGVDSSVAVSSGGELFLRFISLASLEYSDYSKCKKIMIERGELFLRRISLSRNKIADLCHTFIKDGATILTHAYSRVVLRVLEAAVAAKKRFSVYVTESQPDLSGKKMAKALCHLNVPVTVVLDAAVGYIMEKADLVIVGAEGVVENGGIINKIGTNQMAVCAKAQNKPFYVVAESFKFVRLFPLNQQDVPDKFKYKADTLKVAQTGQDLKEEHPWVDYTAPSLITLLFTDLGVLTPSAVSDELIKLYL
T1 sequence (Q9NR50 whole entry partner): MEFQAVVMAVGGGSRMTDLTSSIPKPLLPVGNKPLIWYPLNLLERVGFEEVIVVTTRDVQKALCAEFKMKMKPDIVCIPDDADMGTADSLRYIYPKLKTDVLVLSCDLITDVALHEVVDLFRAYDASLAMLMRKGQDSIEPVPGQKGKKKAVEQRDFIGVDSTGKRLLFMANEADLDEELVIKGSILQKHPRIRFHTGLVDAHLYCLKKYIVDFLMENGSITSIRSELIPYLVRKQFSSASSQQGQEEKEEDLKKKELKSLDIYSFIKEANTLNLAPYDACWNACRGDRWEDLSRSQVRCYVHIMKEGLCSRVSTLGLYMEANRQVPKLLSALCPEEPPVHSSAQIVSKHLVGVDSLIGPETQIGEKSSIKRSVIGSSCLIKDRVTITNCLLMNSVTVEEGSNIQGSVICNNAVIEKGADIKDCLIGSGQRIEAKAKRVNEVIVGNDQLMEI
T1 sequence (Q13144 whole entry partner): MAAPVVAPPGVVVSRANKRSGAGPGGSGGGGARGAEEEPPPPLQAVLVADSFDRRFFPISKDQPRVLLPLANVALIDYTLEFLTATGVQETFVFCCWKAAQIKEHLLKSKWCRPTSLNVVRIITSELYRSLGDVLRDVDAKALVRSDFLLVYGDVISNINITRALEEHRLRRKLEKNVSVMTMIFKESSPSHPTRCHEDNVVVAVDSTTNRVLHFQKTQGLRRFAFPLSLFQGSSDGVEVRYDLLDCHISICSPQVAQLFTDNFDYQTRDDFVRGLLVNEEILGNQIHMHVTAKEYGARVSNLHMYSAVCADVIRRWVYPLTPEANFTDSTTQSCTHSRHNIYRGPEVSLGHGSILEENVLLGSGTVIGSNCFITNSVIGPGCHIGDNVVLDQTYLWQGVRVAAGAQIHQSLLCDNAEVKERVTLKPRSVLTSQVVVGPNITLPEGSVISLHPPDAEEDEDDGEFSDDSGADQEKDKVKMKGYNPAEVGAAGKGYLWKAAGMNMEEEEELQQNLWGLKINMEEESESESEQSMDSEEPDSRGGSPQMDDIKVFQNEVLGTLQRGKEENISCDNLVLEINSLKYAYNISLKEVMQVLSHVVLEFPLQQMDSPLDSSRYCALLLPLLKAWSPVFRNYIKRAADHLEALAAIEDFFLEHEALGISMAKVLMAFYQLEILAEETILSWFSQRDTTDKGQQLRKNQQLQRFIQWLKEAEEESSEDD

pEC50	SMILES
7.00 to 8.00	O=C(COc1ccc(Cl)c(F)c1)NC1CC2(CCN(c3nnc(N4CC(OC(F)(F)F)C4)o3)CC2)C1 [IV-1]
7.00 to 8.00	O=C(COc1ccc(Cl)c(F)c1)NC1CC2(CCN(C(=O)COc3ccc(Cl)c(F)c3)CC2)C1 [IV-11]
< 7.00	O=C(COc1ccc(Cl)c(F)c1)NC1CC2(CCN(C(=O)c3cnc(C(F)F)cn3)CC2)C1 [IV-12]
> 8.00	O=C(COc1ccc(Cl)c(F)c1)NC1CC2(CCN(C(=O)[C@H]3CNc4cc(Cl)ccc4O3)CC2)C1 [IV-13]
7.00 to 8.00	O=C(COc1ccc(Cl)c(F)c1)NC1CC2(CCN(c3nnc(-c4ccc(Cl)cc4)o3)CC2)C1 [IV-14]
< 7.00	CN1C[C@H](C(=O)N2CCC3(CC2)CC(NC(=O)COc2ccc(Cl)c(F)c2)C3)Oc2ccc(Cl)cc21 [IV-15]
< 7.00	O=C(CO[C@H]1C[C@@H](OC(F)(F)F)C1)NC1CC2(CCN(C(=O)c3cc4cc(Cl)ccc4o3)CC2)C1 [IV-16]
< 7.00	O=C(CO[C@H]1C[C@@H](OC(F)(F)F)C1)NC1CC2(CCN(C(=O)COc3ccc(Cl)c(F)c3)CC2)C1 [IV-17]
7.00 to 8.00	O=C(NC1CC2(CCN(C(=O)[C@@H]3CNc4cc(Cl)ccc4O3)CC2)C1)[C@H]1CNc2cc(Cl)ccc2O1 [IV-18]
7.00 to 8.00	O=C(COc1ccc(Cl)c(F)c1)NC1CC2(CCN(C(=O)c3cc4cc(Cl)ccc4o3)CC2)C1 [IV-19]
> 8.00	O=C(NC1CC2(CCN(C(=O)c3cc4cc(Cl)ccc4o3)CC2)C1)c1cc2cc(Cl)ccc2o1 [IV-20]
7.00 to 8.00	O=C(COc1ccc(Cl)c(F)c1)NC1CCC2(CC1)CN(C(=O)COc1ccc(Cl)c(F)c1)C2 [V-10]
< 7.00	O=C(COc1ccc(Cl)c(F)c1)NC1CCC2(CC1)CN(C(=O)c1cnc(C(F)F)cn1)C2 [V-11]
< 7.00	O=C(COc1ccc(Cl)c(F)c1)NC1CCC2(CC1)CN(C(=O)C1CNc3cc(Cl)ccc3O1)C2 (stereo not drawn) [V-12]
7.00 to 8.00	O=C(COc1ccc(Cl)c(F)c1)NC1CC2(CCC(c3nnc(N4CC(OC(F)(F)F)C4)o3)CC2)C1 (stereo not drawn) [VI-1]
> 8.00	O=C(COc1ccc(Cl)c(F)c1)NC1CCC(c2nnc(N3CC(OC(F)(F)F)C3)o2)C2(CC2)C1 (stereo not drawn) [VIII-1]

System: not listed separately
Assay: Evaluation of cell membrane permeability
Type: in vitro ADME
Conditions: 10 μM, 120 minutes; read-out: Efflux Ratio (Papp B to A/Papp A to B)
Procedure: The test compounds were diluted from 10 mM stock solutions to a concentration of 10 μM using the transport buffer (HBSS+BSA) and applied to the apical or basolateral side of the cell monolayer. After the incubation at 37° C., 5% CO2 and 95% relative humidity for 120 minutes, the permeability of the test compounds in the A to B direction or the B to A direction was dually determined. In addition, the efflux ratio (Papp B to A/Papp A to B) of each compound was determined. The test substances and reference substances were quantitatively analyzed by the LC-MS/MS method based on the analyte/IS peak area ratio.

efflux ratio at 120 min, 10 μM	SMILES
44.7	C[C@H]1O[C@@H](O[C@H]2[C@@H](O)C[C@H](O[C@H]3[C@@H](O)C[C@H](O[C@H]4CC[C@@]5(C)[C@H](CC[C@@H]6[C@@H]5C[C@@H](O)[C@]5(C)[C@@H](C7=CC(=O)OC7)CC[C@]65O)C4)O[C@@H]3C)O[C@@H]2C)C[C@H](O)[C@@H]1O [Digoxin]

Same assay, conditions: 10 μM, transport buffer (HBSS+BSA), 37° C., 120 minutes

Papp A→B at 120 min, 10 μM [×10⁻⁶ cm/s]	Papp B→A at 120 min, 10 μM [×10⁻⁶ cm/s]	SMILES
0.25	11.2	C[C@H]1O[C@@H](O[C@H]2[C@@H](O)C[C@H](O[C@H]3[C@@H](O)C[C@H](O[C@H]4CC[C@@]5(C)[C@H](CC[C@@H]6[C@@H]5C[C@@H](O)[C@]5(C)[C@@H](C7=CC(=O)OC7)CC[C@]65O)C4)O[C@@H]3C)O[C@@H]2C)C[C@H](O)[C@@H]1O [Digoxin]
32.4	20.1	CC(C)NCC(O)COc1cccc2ccccc12 (stereo not drawn) [Propranolol]

System: mouse models
Assay: not given
Conditions: cited from earlier work

SMILES	long-term memory (in words)
O=C(COc1ccc(Cl)cc1)NC1CCC(NC(=O)COc2ccc(Cl)cc2)CC1 (stereo not drawn) [ISRIB]	improve long-term memory

System: model animals
Assay: not given
Conditions: oral administration for three days; cited from earlier work

SMILES	brain function (in words)
NC(CO)(CO)CO.O=C(COc1ccc(Cl)c(F)c1)NC12CCC(NC(=O)COc3ccc(Cl)c(F)c3)(CC1)[C@@H](OCOP(=O)([O-])O)C2.[Na+] [ABBV-CLS-7262]	restored to youthful levels

System: healthy participants
Assay: not given
Conditions: Phase 1, healthy participants; cited from earlier work

SMILES	safety and tolerability (in words)
O=C(COc1ccc(Cl)cc1)NC12CC(c3nnc([C@H]4C[C@@H](OC(F)(F)F)C4)o3)(C1)C2 [DNL-343]	demonstrated its safety and tolerability
